The values that follow come from ChEMBL document CHEMBL1138148, “Conformational constraint in oxazolidinone antibacterials. Part 2: Synthesis and structure-activity studies of oxa-, aza-, and thiabicyclo[3.1.0]hexylphenyl oxazolidinones” (2006).

SMILES strings stand for the structures. In brackets after ≈: the same amount, converted by molar mass.

Type in all cases: functional
Test [1] concerns Haemophilus influenzae. The experiment in a line: Antibacterial activity against Haemophilus influenzae HI3542. Particulars: HI-3542.
The test system of test [2] is Enterococcus faecalis. The experiment in a line: Antibacterial activity against Enterococcus faecalis MGH-2 EF1-1.
The subject of test [3] is Streptococcus pneumoniae. The experiment in a line: Antibacterial activity against Streptococcus pneumoniae SVI SP-3.
Test [4] relates to Staphylococcus aureus. The experiment in a line: Antibacterial activity against Staphylococcus aureus UC-76 SA-1.
Test [5] concerns Moraxella catarrhalis. The experiment in a line: Antibacterial activity against Moraxella catarrhalis BC-3531.

Consider `CC(=O)NC[C@H]1CN(c2ccc([C@H]3[C@@H]4CN(c5nn[nH]n5)C[C@@H]43)c(F)c2)C(=O)O1`, for which the MIC amounted to 64 µg/mL (≈ 159 µM) in test [1]; 32 µg/mL (≈ 79.7 µM) in test [2]; 64 µg/mL (≈ 159 µM) in test [3]; 64 µg/mL (≈ 159 µM) in test [4]; 64 µg/mL (≈ 159 µM) in test [5].

`CC(=O)NC[C@H]1CN(c2ccc([C@H]3[C@@H]4CN(C(=O)CC#N)C[C@@H]43)c(F)c2)C(=O)O1`: the MIC stood at 8 µg/mL (≈ 20 µM) in test [1]; 1 µg/mL (≈ 2.5 µM) in test [2]; 1 µg/mL (≈ 2.5 µM) in test [3]; 1 µg/mL (≈ 2.5 µM) in test [4]; 4 µg/mL (≈ 9.99 µM) in test [5].

Turning to `CC(=O)NC[C@H]1CN(c2ccc([C@H]3[C@@H]4CN(C(=N)N)C[C@@H]43)c(F)c2)C(=O)O1`, the MIC in test [1] was determined as 64 µg/mL (≈ 170 µM); in test [2], 64 µg/mL (≈ 170 µM); in test [3], 4 µg/mL (≈ 10.7 µM); in test [4], 64 µg/mL (≈ 170 µM); in test [5] it was 16 µg/mL (≈ 42.6 µM).

On to `CC(=O)NC[C@H]1CN(c2ccc([C@H]3[C@@H]4CN(C(=O)C(C)(C)O)C[C@@H]43)c(F)c2)C(=O)O1`, for which the MIC in test [1] stood at 32 µg/mL (≈ 76.3 µM); in test [2] it was 4 µg/mL (≈ 9.54 µM); in test [3], 2 µg/mL (≈ 4.77 µM); in test [4], 8 µg/mL (≈ 19.1 µM); in test [5] it was 16 µg/mL (≈ 38.1 µM).

Turning to `COC(=O)N1C[C@@H]2[C@H](C1)[C@H]2c1ccc(N2C[C@H](CNC(C)=O)OC2=O)cc1F`, the MIC in test [1] came out at 32 µg/mL (≈ 81.8 µM); in test [2], 4 µg/mL (≈ 10.2 µM); in test [3], 2 µg/mL (≈ 5.11 µM); in test [4], 4 µg/mL (≈ 10.2 µM); in test [5], 8 µg/mL (≈ 20.4 µM).

`CC(=O)NC[C@H]1CN(c2ccc([C@H]3[C@@H]4CN(CCO)C[C@@H]43)c(F)c2)C(=O)O1`: the MIC in test [1] was 8 µg/mL (≈ 21.2 µM); in test [2], 8 µg/mL (≈ 21.2 µM); in test [3], 0.5 µg/mL (≈ 1.32 µM); in test [4] it was 4 µg/mL (≈ 10.6 µM); in test [5] it was 8 µg/mL (≈ 21.2 µM).

As for `C/N=C(\NC#N)N1C[C@@H]2[C@H](C1)[C@H]2c1ccc(N2C[C@H](CNC(C)=O)OC2=O)cc1F`, the MIC in test [1] stood at 16 µg/mL (≈ 38.6 µM); in test [2], 4 µg/mL (≈ 9.65 µM); in test [3], 2 µg/mL (≈ 4.83 µM); in test [4] it was 4 µg/mL (≈ 9.65 µM); in test [5], 32 µg/mL (≈ 77.2 µM).

`CC(=O)NC[C@H]1CN(c2ccc([C@H]3[C@@H]4CN(C(=N)NC#N)C[C@@H]43)c(F)c2)C(=O)O1`: the MIC in test [1] came to 8 µg/mL (≈ 20 µM); in test [2], 2 µg/mL (≈ 4.99 µM); in test [3] it was 1 µg/mL (≈ 2.5 µM); in test [4], 1 µg/mL (≈ 2.5 µM); in test [5], 8 µg/mL (≈ 20 µM).

Take `CC(=O)NC[C@H]1CN(c2ccc([C@H]3[C@@H]4CN(CCC#N)C[C@@H]43)c(F)c2)C(=O)O1`: the MIC in test [1] came to 16 µg/mL (≈ 41.4 µM); in test [2] it was 2 µg/mL (≈ 5.18 µM); in test [3] it was 1 µg/mL (≈ 2.59 µM); in test [4], 2 µg/mL (≈ 5.18 µM); in test [5] it was 8 µg/mL (≈ 20.7 µM).

`CC(=O)NC[C@H]1CN(c2ccc([C@H]3[C@@H]4CN(C(=O)C(F)F)C[C@@H]43)c(F)c2)C(=O)O1`: the MIC in test [1] is 16 µg/mL (≈ 38.9 µM); in test [2], 2 µg/mL (≈ 4.86 µM); in test [3], 1 µg/mL (≈ 2.43 µM); in test [4] it was 4 µg/mL (≈ 9.72 µM); in test [5] it was 8 µg/mL (≈ 19.4 µM).

On to `CC(=O)NC[C@H]1CN(c2ccc([C@H]3[C@@H]4CN(CCF)C[C@@H]43)c(F)c2)C(=O)O1`, for which the MIC was 16 µg/mL (≈ 42.2 µM) in test [1]; 4 µg/mL (≈ 10.5 µM) in test [2]; 1 µg/mL (≈ 2.64 µM) in test [3]; 4 µg/mL (≈ 10.5 µM) in test [4]; 8 µg/mL (≈ 21.1 µM) in test [5].

On to `CC(=O)NC[C@H]1CN(c2ccc([C@H]3[C@@H]4CN(c5nnn(C)n5)C[C@@H]43)c(F)c2)C(=O)O1`, for which the MIC in test [1] was found to be 16 µg/mL (≈ 38.5 µM); in test [2] it was 2 µg/mL (≈ 4.81 µM); in test [3], 1 µg/mL (≈ 2.41 µM); in test [4], 2 µg/mL (≈ 4.81 µM); in test [5], 8 µg/mL (≈ 19.3 µM).

As for `CC(=O)NCC(=O)N1C[C@@H]2[C@H](C1)[C@H]2c1ccc(N2C[C@H](CNC(C)=O)OC2=O)cc1F`, the MIC in test [1] stood at 32 µg/mL (≈ 74 µM); in test [2] it was 4 µg/mL (≈ 9.25 µM); in test [3] it was 4 µg/mL (≈ 9.25 µM); in test [4], 4 µg/mL (≈ 9.25 µM); in test [5], 32 µg/mL (≈ 74 µM).

As for `CC(=O)NC[C@H]1CN(c2ccc(N3CCOCC3)c(F)c2)C(=O)O1` [LINEZOLID], the MIC in test [1] came out at 16 µg/mL (≈ 47.4 µM); in test [5] it was 8 µg/mL (≈ 23.7 µM).
